Assay results taken from article PMC12198407, “Preclinical and first-in-human of purinostat mesylate, a novel selective HDAC I/IIb inhibitor, in relapsed/refractory multiple myeloma and lymphoma” (Signal Transduction and Targeted Therapy, 2025).
Where two headings read alike, the source gives them in different places.

Assays:
[1] = Bone marrow micronucleus test; type: in vivo, NIH mice; settings: 20, 40, 60, 80 mg/kg i.v. daily for 3 days
Method: In this experiment, 90 SPF-grade NIH mice (half male and half female) were randomly divided into 7 groups: a negative control group (0.9% sodium chloride injection, intravenous injection, 10 mL/kg), an excipient control group (blank formulation, intravenous injection, 10 mL/kg), a positive control group (cyclophosphamide 40 mg/kg, intraperitoneal injection, 10 mL/kg), and four groups for intravenous injection of Purinostat Mesylate at low, medium, high, and highest doses (20, 40, 60, and 80 mg/kg, intravenous injection, 10 mL/kg). The negative control and positive control groups each consisted of 20 mice, while the other groups each consisted of 10 mice, with an equal number of males and females. Mice in each group were administered the specified doses once daily for 3 consecutive days, while the positive control group received only a single dose. Twenty to twenty-four hours after the last administration, all mice in each group were euthanized, and femoral bone marrow smears were prepared. The smears were stained with Giemsa and observed under an oil immersion microscope. For each mouse, 4000 polychromatic erythrocytes (PCEs) were counted to calculate the micronucleus incidence (‰), while 500 bone marrow erythrocytes were counted to determine the ratio of polychromatic erythrocytes to total erythrocytes.

[2] = biological target: human ether-à-go-go-related gene (hERG) channel (Homo sapiens, UniProt Q12809); experiment: hERG inhibition; type: biochemical
[3] = Systemic active allergic test; type: in vivo, guinea pigs; settings: 0.204 and 0.612 mg/mL
Method: This experiment included a negative control group, a positive control group, a blank formulation group of injectable Purinostat Mesylate, and low and high dose groups of injectable Purinostat Mesylate, with 6 British guinea pigs in each group, evenly divided by sex. During the sensitization phase, the low and high dose groups received intravenous injections of 0.204 mg/mL and 0.612 mg/mL of injectable Purinostat Mesylate (1 and 3 times the maximum intended clinical concentration, respectively) at a volume of 0.5 mL per guinea pig. The blank formulation group received intravenous injections of the excipient in the same volume as the high dose group. The negative control group received an equal volume of 0.9% sodium chloride injection, while the positive control group received an intraperitoneal injection of 4 mg of ovalbumin solution per guinea pig. Sensitization was performed once every other day for a total of 3 consecutive sensitizations. On days 14 and 21 after the last sensitization, each group received an intravenous injection of 2 times the sensitizing dose to provoke an allergic response. Reactions and mortality were observed 30 minutes after the provocation injection.

[4] = system: human double-hit lymphoma SUDHL-6; experiment: SUDHL-6 subcutaneous tumor model; type: in vivo, NOD/SCID mice; settings: for median survival time: satellite group
CYP3A4 = experiment: CYP induction, cryopreserved human liver cells; type: in vitro ADME; settings: 0.0500, 0.500, 5.00 µM; three donors
[5] = Acute toxicity test, intravenous; type: in vivo, Beagle dogs
Method: In this study, the designed doses were 10 and 50 mg/kg administered intravenously. […] The maximum tolerated dose (MTD) was determined to be 10 mg/kg.

[6] = Metabolite profiling in plasma, bile, urine, feces; type: in vivo, SD rats; settings: for share of plasma AUC0-96h: [14C] 3 mg/100 µCi/kg i.v.; for amount in bile, % of administered dose: 0 to 72 hours; for amount in feces, % of administered dose / amount in urine, % of administered dose: 0 to 168 hours
Method: Following a single intravenous administration of [14C] Purinostat Mesylate at a dose of 3 mg/100 µCi/kg in male and female rats, a total of 14 metabolites were identified, in addition to the parent compound. These were designated as M382, M396, M474, M475, M490, M516, M517, M532, M546, M548, M558, M666, M708a, and M708b. Among these, M382 is an acetylated product of the parent drug after N-dealkylation, M396 is a carboxylic acid derivative of M382, M474 is a reduction product of the parent drug, M475 is a hydroxylated product derived from the amino conversion of M474, M490 is a mono-oxidation product of M474, M516 is an acetylated product of M474, M517 is a hydroxylated product derived from the amino conversion of M516, M532 is an acetylated product of the parent drug, M546 is a methylated product of M532, M548 is a dioxidation product of M516, M558 is a glucuronic acid conjugate of M382, M666 is a glucuronic acid conjugate of the parent drug, M708a is a mono-oxidation glucuronic acid conjugate of M516, and M708b is a glucuronic acid conjugate of M532.

HDAC4 = HDAC4 (Homo sapiens, UniProt P56524); experiment: HDAC enzyme activity in vitro; type: biochemical
[7] = system: BCR-ABL positive B-ALL PDX; experiment: PDX model of clinical B-ALL patient; type: in vivo, NOD/SCID mice
From the text: A clinical sample from a B-ALL patient was obtained, characterized by BCR-ABL positivity and relapse after first-line treatment.

CYP2C19 = biological target: T1, CYP2C19 (Homo sapiens, UniProt P33261); experiment: CYP inhibition, human liver microsomes; type: in vitro ADME
T1 construct: human liver microsomal cytochrome P450 isoenzymes; from tissue; host or cells: human liver microsomes

[8] = system: serum cytokines and T cells in PB; experiment: Phase I trial, serum cytokines and PB T cells in responders; type: in vivo, human; settings: after 1 week
Raji-luc = experiment: Luciferase substrate viability assay; type: cell-based, human
[9] = system: human Burkitt lymphoma Daudi; experiment: Daudi subcutaneous tumor model; type: in vivo, NOD/SCID mice; settings: for average median survival time: satellite group

T1 sequence (P33261 whole entry): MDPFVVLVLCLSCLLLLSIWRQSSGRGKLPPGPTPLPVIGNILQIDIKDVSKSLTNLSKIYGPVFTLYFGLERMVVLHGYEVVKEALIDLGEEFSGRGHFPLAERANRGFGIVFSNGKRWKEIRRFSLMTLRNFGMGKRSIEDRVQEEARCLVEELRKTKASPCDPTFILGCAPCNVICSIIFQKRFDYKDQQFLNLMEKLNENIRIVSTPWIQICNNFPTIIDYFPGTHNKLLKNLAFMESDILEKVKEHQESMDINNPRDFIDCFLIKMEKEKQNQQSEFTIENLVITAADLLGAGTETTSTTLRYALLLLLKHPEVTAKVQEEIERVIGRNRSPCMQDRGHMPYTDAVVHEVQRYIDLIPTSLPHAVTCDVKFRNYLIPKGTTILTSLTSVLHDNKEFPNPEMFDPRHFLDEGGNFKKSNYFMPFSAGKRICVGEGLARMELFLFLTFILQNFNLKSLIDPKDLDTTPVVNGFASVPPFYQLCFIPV
Sequence of HDAC4 (P56524 whole entry): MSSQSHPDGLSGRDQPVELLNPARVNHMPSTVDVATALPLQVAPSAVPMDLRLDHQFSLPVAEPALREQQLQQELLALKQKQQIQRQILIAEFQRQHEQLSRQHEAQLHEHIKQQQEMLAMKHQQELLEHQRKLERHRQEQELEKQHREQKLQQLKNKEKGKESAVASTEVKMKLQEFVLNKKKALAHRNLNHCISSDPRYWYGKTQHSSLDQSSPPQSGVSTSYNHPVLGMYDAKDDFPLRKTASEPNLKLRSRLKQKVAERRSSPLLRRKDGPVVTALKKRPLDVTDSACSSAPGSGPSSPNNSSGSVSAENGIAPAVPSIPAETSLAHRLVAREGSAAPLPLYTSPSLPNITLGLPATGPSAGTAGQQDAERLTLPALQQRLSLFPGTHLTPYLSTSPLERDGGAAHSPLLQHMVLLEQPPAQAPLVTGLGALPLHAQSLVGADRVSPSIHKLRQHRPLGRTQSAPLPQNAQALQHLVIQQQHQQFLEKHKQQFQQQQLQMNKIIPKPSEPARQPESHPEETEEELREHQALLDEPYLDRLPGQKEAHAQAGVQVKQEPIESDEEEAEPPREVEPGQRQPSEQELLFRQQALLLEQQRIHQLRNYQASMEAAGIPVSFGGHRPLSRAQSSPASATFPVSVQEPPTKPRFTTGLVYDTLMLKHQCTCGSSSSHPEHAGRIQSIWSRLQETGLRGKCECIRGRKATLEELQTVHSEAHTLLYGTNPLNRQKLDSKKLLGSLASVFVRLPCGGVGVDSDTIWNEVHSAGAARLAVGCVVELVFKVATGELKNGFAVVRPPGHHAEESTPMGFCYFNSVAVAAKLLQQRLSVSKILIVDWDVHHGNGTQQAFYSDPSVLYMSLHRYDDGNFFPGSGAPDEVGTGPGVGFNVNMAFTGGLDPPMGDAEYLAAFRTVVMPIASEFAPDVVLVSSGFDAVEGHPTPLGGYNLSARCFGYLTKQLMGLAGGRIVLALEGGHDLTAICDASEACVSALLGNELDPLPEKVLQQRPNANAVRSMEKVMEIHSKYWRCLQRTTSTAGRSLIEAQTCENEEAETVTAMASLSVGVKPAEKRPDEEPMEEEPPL
Sequence of human ether-à-go-go-related gene (hERG) channel (Q12809 whole entry): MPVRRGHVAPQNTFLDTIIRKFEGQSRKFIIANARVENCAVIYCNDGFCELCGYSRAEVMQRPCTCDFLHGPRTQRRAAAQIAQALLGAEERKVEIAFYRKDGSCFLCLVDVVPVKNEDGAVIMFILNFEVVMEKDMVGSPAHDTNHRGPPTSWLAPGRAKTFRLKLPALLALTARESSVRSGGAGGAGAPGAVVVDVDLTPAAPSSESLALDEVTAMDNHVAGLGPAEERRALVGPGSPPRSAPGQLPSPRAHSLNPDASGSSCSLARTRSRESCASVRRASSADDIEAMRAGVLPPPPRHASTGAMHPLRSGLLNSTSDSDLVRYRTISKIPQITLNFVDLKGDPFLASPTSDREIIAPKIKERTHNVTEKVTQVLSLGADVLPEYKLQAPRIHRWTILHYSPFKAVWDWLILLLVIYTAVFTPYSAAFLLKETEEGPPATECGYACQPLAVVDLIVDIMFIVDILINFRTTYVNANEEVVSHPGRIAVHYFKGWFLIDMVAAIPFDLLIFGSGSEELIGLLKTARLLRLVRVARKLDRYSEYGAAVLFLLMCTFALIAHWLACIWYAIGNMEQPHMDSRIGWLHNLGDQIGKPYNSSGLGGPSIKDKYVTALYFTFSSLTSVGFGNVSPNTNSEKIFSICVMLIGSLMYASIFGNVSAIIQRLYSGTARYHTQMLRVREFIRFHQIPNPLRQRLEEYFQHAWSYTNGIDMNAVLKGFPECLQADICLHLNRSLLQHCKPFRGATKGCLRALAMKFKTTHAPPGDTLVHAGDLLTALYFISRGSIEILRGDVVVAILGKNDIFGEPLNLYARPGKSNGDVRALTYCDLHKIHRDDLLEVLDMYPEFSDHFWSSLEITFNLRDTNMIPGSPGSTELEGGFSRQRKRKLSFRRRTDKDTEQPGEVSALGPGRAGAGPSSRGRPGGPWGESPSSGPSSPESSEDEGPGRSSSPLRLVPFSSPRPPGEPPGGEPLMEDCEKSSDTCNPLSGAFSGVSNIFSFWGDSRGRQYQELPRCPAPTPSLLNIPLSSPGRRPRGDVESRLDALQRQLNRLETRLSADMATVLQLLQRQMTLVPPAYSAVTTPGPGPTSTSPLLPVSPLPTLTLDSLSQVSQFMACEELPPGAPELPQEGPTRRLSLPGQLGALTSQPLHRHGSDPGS
Method for T315I Bcr-Abl B-ALL: Subcutaneous or orthotopic tumor models were established using NOD/SCID mice for human-derived lymphoma, multiple myeloma cell lines, and samples from clinical B-ALL patients. The Ighmyc transgenic mice and primary B-ALL models were induced using C57 mouse strains. The experimental doses of Purinostat Mesylate include 1.25, 2.5, 5, 10, and 20 mg/kg, administered via tail vein (i.v.) three times a week. In each model experiment, the positive control drugs included the HyperCVAD regimen (cyclophosphamide, doxorubicin, vincristine, dexamethasone, methotrexate, and cytarabine) simulating clinical treatment for double-hit lymphoma, the CODOX regimen (cyclophosphamide, doxorubicin, vincristine, methotrexate, and cytarabine) simulating clinical treatment for Burkitt lymphoma, as well as lenalidomide (L), bortezomib (B), dexamethasone (D), and LBH589 lactate, which is marketed for relapsed or refractory multiple myeloma. In the subcutaneous tumor model experiments using human-derived tumor cell lines, the inhibitory effect of Purinostat Mesylate on tumors was assessed by measuring tumor volume (TV), tumor weight, relative tumor volume (RTV), and relative tumor growth rate (T/C). Additionally, in some model experiments, satellite groups were designed, where animals in these groups were not sacrificed at the same treatment endpoint and received extended treatment. […]

With `CN(Cc1nc2c(N3CCOCC3)nc(-c3ccc(N)cc3)nc2n1C)c1ncc(C(=O)NO)cn1.CS(=O)(=O)O` [PM, 2-(((2-(4-Aminophenyl)-9-methyl-6-(4-morpholinyl)-9H-purine-8-yl)methyl)methylamino)-N-hydroxy-5-pyrimidine-carboxamide Mesylate] the “bone marrow micronucleus test result” value [1] was “negative”, the IC50 [2] was greater than 100 µM and the “systemic active allergic test outcome” value [3] was “negative”. For the same compound, the T/C ([4]; 2.5 mg/kg) was 47.88±9.41%, the tumor inhibition rate ([4]; 2.5 mg/kg i.v. three times a week, mean of two batches) was 58.99±2.32% and the T/C ([4]; 5 mg/kg) was 34.37±3.79%. For the same compound, the tumor inhibition rate ([4]; 5 mg/kg) was 69.35±3.47%, the T/C ([4]; 10 mg/kg) was 29.62±1.77% and the tumor inhibition rate ([4]; 10 mg/kg) was 75.81±8.28%. It also gave a T/C ([4]; 20 mg/kg) of 21.28±6.72%, a tumor inhibition rate ([4]; 20 mg/kg) of 81.40±5.38% and a median survival time ([4]; 10 mg/kg, death = tumor 3000 mm³) of 30 days. The median survival time ([4]; 20 mg/kg) was 30 days, the “induction of CYP3A4” value (CYP3A4) was “did not act as an inducer” and the mortality ([5]; 50 mg/kg) was “all animals dying between days 2 and 4”. The MTD ([5]; beagle, dog, in vivo, iv, single i.v., read-out: maximum tolerated dose (MTD)) was 10 mg/kg, the median survival time (T315I Bcr-Abl B-ALL; 5 mg/kg, solvent control 44 days) was “greater than 80 days” and the median survival time (T315I Bcr-Abl B-ALL; 10 mg/kg) was “greater than 80 days”. The “share of plasma AUC0-96h” value ([6]; female rats) was 11.15%, the “amount in bile, % of administered dose” value ([6]; females) was 2.45% and the “amount in feces, % of administered dose” value ([6]; females) was 0.84%. For the same compound, the “amount in urine, % of administered dose” value ([6]; females) was 0.35%, the “share of plasma AUC0-96h” value ([6]; male rats) was 8.79% and the “amount in bile, % of administered dose” value ([6]; males) was 2.47%. For the same compound, the “amount in feces, % of administered dose” value ([6]; males) was 0.94%, the “amount in urine, % of administered dose” value ([6]; males) was 0.66% and the IC50 (HDAC4) was 1.07 µM. For the same compound, the median survival time ([7]; 2.5 mg/kg, solvent control 21 days) was 66 days, the median survival time ([7]; 10 mg/kg) was 73 days and the IC50 (CYP2C19) was greater than 10 µM. For the same compound, the “proportion of CD3+CD4+ T cells in PB” value ([8]; before 4.12%) was 6.49%, the “proportion of CD3+CD8+ T cells in PB” value ([8]; before 4.30%) was 9.56% and the “proportion of CD3+ T cells in PB” value ([8]; before 8.42%) was 16.05%. For the same compound, the “time until effect detectable” value (Raji-luc) was 36 h, the T/C ([9]; 2.5 mg/kg) was 17.75±2.47% and the tumor inhibition rate ([9]; 2.5 mg/kg, mean of two batches) was 82.84 ± 2.18%. For the same compound, the T/C ([9]; 5 mg/kg) was 10.40±2.97%, the tumor inhibition rate ([9]; 5 mg/kg) was 87.86 ± 2.38% and the T/C ([9]; 10 mg/kg) was 7.35±3.75%. The tumor inhibition rate ([9]; 10 mg/kg) was 90.86 ± 3.84%, the median survival time ([9]; 20 mg/kg, paused day 28, resumed day 35) was 54.4 days and the “average median survival time” value ([9]; 5 mg/kg) was 54.5 ± 5.0 days. The “average median survival time” value ([9]; 10 mg/kg) was 58.5 ± 2.1 days.
